# Measurements published in patent US20220153739A1, “OPIOID RECEPTOR MODULATOR AND USE THEREOF” (Arriba BioPharma, Inc., priority 2020, published 2022).
# How the values were obtained:
# male CD-1 mice [1] = experiment: Stress induced fecal output; type: in vivo; conditions: for 0 h (Stools), mean / 0-1 h (Stools), mean / 1-2 h (Stools), mean / 2-4 h (Stools), mean: 50 mg/kg PO, stress induced
# From the text: The animals used in the studies are male CD-1 mice, average weight about 25 to 35 g, with an average of 5 mice per dose group. The mice were generally housed in colony housing where they are housed 4 per cage in polycarbonate 20 cages with access to food and water ad lib. On the day of the experiment they are transported to the procedure room where they were individually housed in metabolism cage (CAT003) after intragastric administration of Compound D at 50mpk, a reference compound of Formula II (“ORP-101”), and the vehicle alone. Compound D (“ALB-215896”) and the reference compound were each weighed and dissolved in 2.58 ml of de-ion water, mixed by vortex, to prepare the compound D and reference compound solutions at 5 mg/mL.
# During the test, the animals were fasted with free access to water. The wire mesh bottomed tall cage creates a novel environment which induces stress in mice. Stool collection and the number of pellets excreted were determined 0, 1, 2, 4 hours after administration. […] Details data of this study is provided below in Table 1.
# male CD-1 mice [2] = experiment: Post-inflammatory altered GI transit time (mustard oil), fecal output; type: in vivo; conditions: for 0 h (Stools), mean / 1 h (Stools), mean / 2 h (Stools), mean / 4 h (Stools), mean: 50 mg/kg PO, post-inflammatory
# Protocol: This test was designed to measure the effect of test substance on gastrointestinal hypersensitivity that occurs following inflammation. Post-inflammatory altered GI transit was induced in male CD-1 mice by injecting freshly opened oil of mustard (95% pure allyl isothiocyanate, 0.5% in ethanol). The effect of stress on GI is motility is evaluated 4 weeks later, when although there is no longer inflammation, the GI tract remains in a hypersensitive state. Effect of test substance was measured after oral administration (intragastric gavage) and subjecting the animals to environmental stress by housing them in metabolism cage. During the test, the animals were allowed access to water ad lib. The wire mesh bottomed tall cage creates a novel environment, which induces stress in mice. The number of pellets excreted was determined at 1 h, 2 h and 4 h after administration. Compound D (ALB-215896) and ORP-101 were each weighed and dissolved in 2.58 ml of de-ion water, mixed by vortex, to prepare the compound D and reference compound solutions at 5 mg/mL.
# [3] = Bidirectional permeability in Caco-2 cells; type: in vitro ADME; conditions: human, 120 minutes; for Papp B→A at 120 min, 2 μM: Caco-2, Caco-2, B to A direction, read-out: mean apparent permeability coefficient (Papp), B to A
# Protocol: (§1) The objective of this study was to determine the bidirectional permeability and efflux ratio of compound D in the Caco-2 cells. Caco-2 cells (purchased from ATCC) at passage number 49 were seeded on 96-well transport inserts and cultured for 22 days before being used for the transport experiment. Compound D was dosed bi-directionally at 2 μM. Samples were taken at 0 and 120 minutes after incubation and analyzed by LC-MS/MS. […] Therefore, both the efflux ratios could not be calculated.
# [4] = Metabolic stability in human liver microsomes; type: in vitro ADME
# Protocol: (§2) The metabolic stability of Compound D in SD rat and human liver microsomes were measured One (1) μM of Compound D was incubated with SD rat or human liver microsomes with NADPH in a water bath or tecan at 37° C. for up to 60 min. All samples were monitored using LC-MS/MS.
# [5] = Metabolic stability in SD rat liver microsomes; type: in vitro ADME
# Protocol: as §2
# Caco-2 cells = experiment: Bidirectional permeability in Caco-2 cells; type: in vitro ADME
# Protocol: as §1
# [6] = 1 μM, NADPH, 37° C., up to 60 min, read-out: half-life (T1/2)
# [7] = read-out: intrinsic clearance (CLint(liver))
Structure (SMILES),"0 h (Stools), mean (male CD-1 mice [1])","0-1 h (Stools), mean (male CD-1 mice [1])","1-2 h (Stools), mean (male CD-1 mice [1])","2-4 h (Stools), mean (male CD-1 mice [1])","0 h (Stools), mean (male CD-1 mice [2])","1 h (Stools), mean (male CD-1 mice [2]; 1 h)","2 h (Stools), mean (male CD-1 mice [2])","4 h (Stools), mean (male CD-1 mice [2])","Papp B→A at 120 min, 2 μM [3]",further results
"CO[C@]12CC[C@@]3(C[C@@H]1[C@](C)(O)C(C)(C)C)[C@H]1Cc4ccc(OCCOc5ccc6c7c5O[C@H]5C78CCN(CC7CC7)[C@H](C6)[C@]86CC[C@]5(OC)[C@@H]([C@](C)(O)C(C)(C)C)C6)c5c4[C@@]3(CCN1CC1CC1)[C@@H]2O5 [ORP-101, reference compound]",0 Stools,3.8 Stools,3 Stools,2.8 Stools,0 Stools,1.75 Stools,2.00 Stools,3.75 Stools,< 0.13 ×10⁻⁶ cm/s,"Papp A→B at 120 min ([3]; Caco-2, apical to basolateral, read-out: mean apparent permeability coefficient (Papp), A to B): < 0.14 ×10⁻⁶ cm/s"
"COc1ccc2c3c1O[C@@H]1[C@@]4(OCCOc5ccc6c7c5OC5C8(OC)CC[C@@]9(CC8[C@](C)(O)C(C)(C)C)[C@@H](C6)N(CC6CC6)CCC759)CC[C@@]5(C[C@@H]4[C@](C)(O)C(C)(C)C)[C@@H](C2)N(CC2CC2)CC[C@]315 (stereo in doubt) [Compound D, 2-((4R,4aS,6R,7R,7aR,12bS)-9-(2-(((4R,4aS,6R,7R,7aS,12bS)-9-(Methyloxy)-3-(cyclopropylmethyl)-6-(2-hydroxy-3,3-dimethylbutan-2-yl)-1,2,3,4,5,6 hexahydro-4a,7-ethano-4,12-methanobenzofuro[3,2-e]isoquinolin-7(7aH)yl)oxy)ethoxy)-3-(cyclopropylmethyl)-7-methoxy-1,2,3,4,5,6,7,7a-octahydro-4a,7ethano-4,12-methanobenzofuro[3,2-e]isoquinolin-6-yl)-3,3-dimethylbutan-2-ol]",0 Stools,2.4 Stools,1.4 Stools,2 Stools,0.00 Stools,1.49 Stools,1.59 Stools,2.77 Stools,< 0.4 ×10⁻⁶ cm/s,"metabolic stability in words [4]: stably metabolized; half-life at 1 μM [4, 6]: 1.37 h; CLint scaled at 1 μM [4, 7]: 15.2 mL/min/kg; fecal output versus vehicle and reference compound, in words (male CD-1 mice [1]; oral 50mpk, 1 h, 2 h and 4 h time points): significantly reduced the fecal output; metabolic stability in words [5]: moderately metabolized; half-life at 1 μM [5, 6]: 1.46 h; CLint scaled at 1 μM [5, 7]: 28.5 mL/min/kg; gastrointestinal motility measured by fecal output, in words (male CD-1 mice [2]; 50mpk, 1 h, 2 h, and 4 h time points, post-inflammatory model): significantly decreased gastrointestinal motility; Papp A→B at 120 min, 2 μM ([3]; Caco-2, apical to basolateral, 2 μM, read-out: mean apparent permeability coefficient (Papp), A to B): < 0.48 ×10⁻⁶ cm/s; mean apparent permeability coefficient (Papp), B to A (Caco-2 cells; Caco-2, B to A direction, 120 minutes): < 0.5 ×10⁻⁶ cm/s; substrate of transporters (Caco-2 cells; Caco-2, from B to A Papp): poor and no substrate of transporters; permeability classification (Caco-2 cells; across the Caco-2 cell monolayer): low permeability"
